Source: US10023570B2 (Array BioPharma, Inc., priority 2015, dated 2018)
Counter-ions that a name gives are not always drawn.

biological target: human KDR protein in HEK-293 cells (Homo sapiens (Human), UniProt P35968); experiment: KDR Cell Assay (phospho-KDR in HEK-293 cells expressing inducible KDR); assay type: cell-based; details: pKDR Cell HEK 10% FBS IC50
Summary of the method: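 HEK-293 cells with inducible human KDR were treated with compound for 1 h in DMEM (0.25% DMSO final), then lysed. Phospho-KDR was quantified by Meso Scale immunoassay, expressed as percent of control, and IC50 taken where a 4-parameter logistic fit crossed 50 POC.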

Sequence of human KDR protein in HEK-293 cells (P35968 20-1356): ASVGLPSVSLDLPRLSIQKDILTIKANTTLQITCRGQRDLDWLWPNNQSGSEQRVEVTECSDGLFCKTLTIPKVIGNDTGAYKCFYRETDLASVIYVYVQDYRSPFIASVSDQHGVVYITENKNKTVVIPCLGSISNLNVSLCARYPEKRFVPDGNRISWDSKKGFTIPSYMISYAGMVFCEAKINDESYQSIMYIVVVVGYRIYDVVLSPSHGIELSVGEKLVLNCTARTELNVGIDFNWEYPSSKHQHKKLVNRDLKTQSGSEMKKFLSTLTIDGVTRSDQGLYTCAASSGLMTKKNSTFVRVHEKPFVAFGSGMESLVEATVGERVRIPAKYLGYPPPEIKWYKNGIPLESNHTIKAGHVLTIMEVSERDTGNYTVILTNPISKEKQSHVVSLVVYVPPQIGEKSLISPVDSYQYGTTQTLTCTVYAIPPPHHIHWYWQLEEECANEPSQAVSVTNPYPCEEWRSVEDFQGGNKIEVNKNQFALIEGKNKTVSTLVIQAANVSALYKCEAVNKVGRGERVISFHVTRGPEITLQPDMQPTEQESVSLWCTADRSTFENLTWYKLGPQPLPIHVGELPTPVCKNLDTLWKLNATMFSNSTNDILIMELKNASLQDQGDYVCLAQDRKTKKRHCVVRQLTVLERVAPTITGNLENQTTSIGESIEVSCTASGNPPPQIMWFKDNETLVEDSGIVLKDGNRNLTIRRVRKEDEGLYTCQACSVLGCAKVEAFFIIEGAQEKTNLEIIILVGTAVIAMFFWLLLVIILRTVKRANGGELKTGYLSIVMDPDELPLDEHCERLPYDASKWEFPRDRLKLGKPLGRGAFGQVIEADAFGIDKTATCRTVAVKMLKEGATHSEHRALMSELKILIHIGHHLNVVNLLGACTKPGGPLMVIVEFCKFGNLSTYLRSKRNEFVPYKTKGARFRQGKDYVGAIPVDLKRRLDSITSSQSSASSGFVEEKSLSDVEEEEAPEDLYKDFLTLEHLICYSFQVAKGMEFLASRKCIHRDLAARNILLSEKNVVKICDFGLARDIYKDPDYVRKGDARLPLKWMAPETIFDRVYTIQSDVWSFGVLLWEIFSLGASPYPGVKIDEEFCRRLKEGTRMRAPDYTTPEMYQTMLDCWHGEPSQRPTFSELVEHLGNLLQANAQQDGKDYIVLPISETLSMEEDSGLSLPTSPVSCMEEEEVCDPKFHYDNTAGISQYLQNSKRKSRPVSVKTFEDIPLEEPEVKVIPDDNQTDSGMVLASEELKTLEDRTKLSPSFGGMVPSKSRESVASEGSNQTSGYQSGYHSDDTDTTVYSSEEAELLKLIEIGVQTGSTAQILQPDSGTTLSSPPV

Row | Compound | IC50 [nM]
1 | CC[C@H](O)CN1CCN(c2ccc(-c3cc(-c4cnn(C)c4)cn4ncc(C#N)c34)cn2)CC1 [Example 150, (S)-4-(6-(4-(2-hydroxybutyl)piperazin-1-yl)pyridin-3-yl)-6-(1-methyl-1H-pyrazol-4-yl)pyrazolo[1,5-a]pyridine-3-carbonitrile] | 728

same assay, conditions: pKDR Cell HEK 10% FBS IC50, HEK-293 cells expressing inducible KDR, VEGF stimulated

Row | IC50 [nM] | Compound
2 | 1470 | CCn1cc(CN2CCN(c3ccc(-c4cc(-c5cnn(C)c5)cn5ncc(C#N)c45)cn3)CC2)cn1 [Example 446, 4-(6-(4-((1-ethyl-1H-pyrazol-4-yl)methyl)piperazin-1-yl)pyridin-3-yl)-6-(1-methyl-1H-pyrazol-4-yl)pyrazolo[1,5-a]pyridine-3-carbonitrile]
3 | 1770 | Cn1cc(-c2cc(-c3ccc(N4CCN(Cc5ncccn5)CC4)nc3)c3c(C#N)cnn3c2)cn1 [Example 472, 6-(1-methyl-1H-pyrazol-4-yl)-4-(6-(4-(pyrimidin-2-ylmethyl)piperazin-1-yl)pyridin-3-yl)pyrazolo[1,5-a]pyridine-3-carbonitrile]
4 | 857 | CCC1CCN(C(=O)N2CCN(c3ccc(-c4cc(-c5cnn(C)c5)cn5ncc(C#N)c45)cn3)CC2)C1 (centres unmarked) [Example 389, 4-(6-(4-(3-ethylpyrrolidine-1-carbonyl)piperazin-1-yl)pyridin-3-yl)-6-(1-methyl-1H-pyrazol-4-yl)pyrazolo[1,5-a]pyridine-3-carbonitrile]
5 | ≥ 5000 | Cc1ncc(-c2cc(-c3ccc(N4CCN(Cc5ccccc5)CC4)nc3)c3c(C#N)cnn3c2)o1 [Example 628, 4-(6-(4-benzylpiperazin-1-yl)pyridin-3-yl)-6-(2-methyloxazol-5-yl)pyrazolo[1,5-a]pyridine-3-carbonitrile]
6 | 1990 | Cc1cccnc1CN1CCN(c2ccc(-c3cc(-c4cnn(C)c4)cn4ncc(C#N)c34)cn2)CC1 [Example 438, 6-(1-methyl-1H-pyrazol-4-yl)-4-(6-(4-((3-methylpyridin-2-yl)methyl)piperazin-1-yl)pyridine-3-yl)pyrazolo[1,5-a]pyridine-3-carbonitrile]
7 | 4680 | Cn1cc(-c2cc(-c3cnc(N4CCN(Cc5ccccc5)CC4)nc3)c3c(C#N)cnn3c2)cn1 [Example 639, 4-(2-(4-benzylpiperazin-1-yl)pyrimidin-5-yl)-6-(1-methyl-1H-pyrazol-4-yl)pyrazolo[1,5-a]pyridine-3-carbonitrile]
8 | 1370 | Cn1cc(-c2cc(-c3ccc(N4CCN(Cc5cncc(F)c5)CC4)nc3)c3c(C#N)cnn3c2)cn1 [Example 423, 4-(6-(4-((5-fluoropyridin-3-yl)methyl)piperazin-1-yl)pyridin-3-yl)-6-(1-methyl-1H-pyrazol-4-yl)pyrazolo[1,5-a]pyridine-3-carbonitrile]
9 | 24.9 | Cn1cc(-c2cc(-c3ccc(N4CCC(Nc5ccccc5)CC4)nc3)c3c(C#N)cnn3c2)cn1 [Example 507, 6-(1-methyl-1H-pyrazol-4-yl)-4-(6-(4-(phenylamino)piperidin-1-yl)pyridin-3-yl)pyrazolo[1,5-a]pyridine-3-carbonitrile]
10 | 698 | Cn1cc(-c2cc(-c3ccc(N4CCN(Cc5ccccc5Cl)CC4)nc3)c3c(C#N)cnn3c2)cn1 [Example 454, 4-(6-(4-(2-chlorobenzyl)piperazin-1-yl)pyridin-3-yl)-6-(1-methyl-1H-pyrazol-4-yl)pyrazolo[1,5-a]pyridine-3-carbonitrile]
11 | 2030 | CCCCN(C(=O)N1CCN(c2ccc(-c3cc(-c4cnn(C)c4)cn4ncc(C#N)c34)cn2)CC1)c1ccccc1 [Example 377, N-butyl-4-(5-(3-cyano-6-(1-methyl-1H-pyrazol-4-yl)pyrazolo[1,5-a]pyridin-4-yl)pyridine-2-yl)-N-phenylpiperazine-1-carboxamide]

Row | Compound | IC50 [nM]
12 | COc1ncc(C(=O)N2C3CC2CN(c2ccc(-c4cc(-c5cnn(C)c5)cn5ncc(C#N)c45)cn2)C3)cc1F [Example 688, 4-(6-(6-(5-fluoro-6-methoxynicotinoyl)-3,6-diazabicyclo[3.1.1]heptheptan-3-yl)pyridin-3-yl)-6-(1-methyl-1H-pyrazol-4-yl)pyrazolo[1,5-a]pyridine-3-carbonitrile] | 50.9
13 | Cn1cc(-c2cc(-c3ccc(N4CC5CC(C4)N5Cc4ccccn4)nc3)c3c(C#N)cnn3c2)cn1 [Example 693, 6-(1-methyl-1H-pyrazol-4-yl)-4-(6-(6-(pyridin-2-ylmethyl)-3,6-diazabicyclo[3.1.1]heptan-3-yl)pyridin-3-yl)pyrazolo[1,5-a]pyridine-3-carbonitrile] | 1020
14 | Cn1cc(-c2cc(-c3ccc(N4CCC5(CCCN5)CC4)nc3)c3c(C#N)cnn3c2)cn1 [Example 541, 4-(6-(1,8-diazaspiro[4.5]decan-8-yl)pyridin-3-yl)-6-(1-methyl-1H-pyrazol-4-yl)pyrazolo[1,5-a]pyridine-3-carbonitrile dihydrochloride] | 534

same assay, conditions: pKDR Cell HEK 10% FBS IC50, HEK-293 cells expressing inducible KDR, VEGF stimulated, 10% FBS

Row | IC50 [nM] | Compound
15 | 918 | Cn1cc(-c2cc(-c3ccc(N4CCNCC4)cc3)c3c(C#N)cnn3c2)cn1 [Example 291, 6-(1-methyl-1H-pyrazol-4-yl)-4-(4-(piperazin-1-yl)phenyl)pyrazolo[1,5-a]pyridine-3-carbonitrile dihydrochloride]
16 | 1860 | Cn1cc(-c2cc(-c3ccc(N4CCN(C(=O)N5CCCC5(C)C)CC4)nc3)c3c(C#N)cnn3c2)cn1 [Example 124, 4-(6-(4-(2,2-dimethylpyrrolidine-1-carbonyl)piperazin-1-yl)pyridin-3-yl)-6-(1-methyl-1H-pyrazol-4-yl)pyrazolo[1,5-a]pyridine-3-carbonitrile]
17 | 1760 | Cn1cc(-c2cc(-c3ccc(N4CCN(CC(C)(C)O)CC4)nc3)c3c(C#N)cnn3c2)cn1 [Example 156, 4-(6-(4-(2-hydroxy-2-methylpropyl)piperazin-1-yl)pyridin-3-yl)-6-(1-methyl-1H-pyrazol-4-yl)pyrazolo[1,5-a]pyridine-3-carbonitrile]
18 | 385 | COc1ccc(C2(C(=O)N3CCN(c4ccc(-c5cc(-c6cnn(C)c6)cn6ncc(C#N)c56)cn4)CC3)CC2)cc1 [Example 344, 4-(6-(4-(1-(4-methoxyphenyl)cyclopropanecarbonyl)piperazin-1-yl)pyridin-3-yl)-6-(1-methyl-1H-pyrazol-4-yl)pyrazolo[1,5-a]pyridine-3-carbonitrile]
19 | 720 | CC(=O)N1CCN(c2ccc(-c3cc(-c4cnn(C)c4)cn4ncc(C#N)c34)cc2)CC1 [Example 295, 4-(4-(4-acetylpiperazin-1-yl)phenyl)-6-(1-methyl-1H-pyrazol-4-yl)pyrazolo[1,5-a]pyridine-3-carbonitrile]
20 | 207 | Cn1cc(-c2cc(-c3ccc(N4CCN(CC(O)c5ccc(Cl)cc5)CC4)nc3)c3c(C#N)cnn3c2)cn1 (centres unmarked) [Example 152, 4-(6-(4-(2-(4-chlorophenyl)-2-hydroxyethyl)piperazin-1-yl)pyridin-3-yl)-6-(1-methyl-1H-pyrazol-4-yl)pyrazolo[1,5-a]pyridine-3-carbonitrile]
21 | 24.1 | CC(C)CS(=O)(=O)N1CCN(c2ccc(-c3cc(-c4cnn(C)c4)cn4ncc(C#N)c34)cn2)CC1 [Example 90, 4-(6-(4-(isobutylsulfonyl)piperazin-1-yl)pyridin-3-yl)-6-(1-methyl-1H-pyrazol-4-yl)pyrazolo[1,5-a]pyridine-3-carbonitrile]
22 | 476 | Cn1cc(-c2cc(-c3ccc(N4CCN(C(=O)C(C)(C)c5ccccc5)CC4)nc3)c3c(C#N)cnn3c2)cn1 [Example 26, 6-(1-methyl-1H-pyrazol-4-yl)-4-(6-(4-(2-methyl-2-phenylpropanoyl)piperazin-1-yl)pyridin-3-yl)pyrazolo[1,5-a]pyridine-3-carbonitrile]
23 | 73.6 | Cn1cc(-c2cc(-c3ccc(N4CCN(CC(O)c5ccc(F)cc5)CC4)nc3)c3c(C#N)cnn3c2)cn1 (centres unmarked) [Example 164, 4-(6-(4-(2-(4-fluorophenyl)-2-hydroxyethyl)piperazin-1-yl)pyridin-3-yl)-6-(1-methyl-1H-pyrazol-4-yl)pyrazolo[1,5-a]pyridine-3-carbonitrile]
24 | 32.7 | Cn1cc(-c2cc(-c3ccc(N4CCN(C(=O)[C@H](O)Cc5ccccc5)CC4)nc3)c3c(C#N)cnn3c2)cn1 [Example 9, (R)-4-(6-(4-(2-hydroxy-3-phenylpropanoyl)piperazin-1-yl)pyridin-3-yl)-6-(1-methyl-1H-pyrazol-4-yl)pyrazolo[1,5-a]pyridine-3-carbonitrile]
25 | 607 | CC(C)C(C(=O)N1CCN(c2ccc(-c3cc(-c4cnn(C)c4)cn4ncc(C#N)c34)cn2)CC1)c1ccccc1 (centres unmarked) [Example 29, 6-(1-methyl-1H-pyrazol-4-yl)-4-(6-(4-(3-methyl-2-phenylbutanoyl)piperazin-1-yl)pyridin-3-yl)pyrazolo[1,5-a]pyridine-3-carbonitrile]
26 | ≥ 5000 | Cn1cc(-c2cc(-c3ccc(N4CC[C@@H](C(=O)N5CCCC5)C4)nc3)c3c(C#N)cnn3c2)cn1 [Example 260, (R)-6-(1-methyl-1H-pyrazol-4-yl)-4-(6-(3-(pyrrolidine-1-carbonyl)pyrrolidin-1-yl)pyridin-3-yl)pyrazolo[1,5-a]pyridine-3-carbonitrile]
27 | 135 | CO[C@@H](C(=O)N1CCN(c2ccc(-c3cc(-c4cnn(C)c4)cn4ncc(C#N)c34)cn2)CC1)c1ccccc1 [Example 83]
28 | 3180 | Cn1cc(-c2cc(-c3ccc(N4CCN(C(=O)N5CCC(F)(F)CC5)CC4)nc3)c3c(C#N)cnn3c2)cn1 [Example 115, 4-(6-(4-(4,4-difluoropiperidine-1-carbonyl)piperazin-1-yl)pyridin-3-yl)-6-(1-methyl-1H-pyrazol-4-yl)pyrazolo[1,5-a]pyridine-3-carbonitrile]

Row | Compound | IC50 [nM]
29 | Cn1cc(-c2cc(-c3ccc(N4CCN(C(=O)Cc5c(F)cccc5F)CC4)nc3)c3c(C#N)cnn3c2)cn1 [Example 39, 4-(6-(4-(2-(2,6-difluorophenyl)acetyl)piperazin-1-yl)pyridin-3-yl)-6-(1-methyl-1H-pyrazol-4-yl)pyrazolo[1,5-a]pyridine-3-carbonitrile 2,2,2-trifluoroacetate] | 83.9
